According to patent publication US6951652B2, “Vaccine for prevention of gram-negative bacterial infections and endotoxin related diseases” (BioSynth S.r.l., priority 1998, dated 2005):
Ends that are not written are not given here.

Assay: In vitro saturation of lipid A binding site by peptide
Conditions: stoichiometric saturation

With “Lys-Thr-Lys-Cys-Lys-Phe-Leu-Lys-Lys-Cys (KTKCKFLKKC; also: cyclic, ring type not given here) [SAEP2]” the “affinity of binding to lipid A binding site” value was “high affinity”.
